Reference: patent US20220016277A1, “MACROCYCLIC COMPLEXES OF RADIONUCLIDES AND THEIR USE IN RADIOTHERAPY OF CANCER” (Cornell University, priority 2018, published 2022)

Assay: Organ distribution of ^225Ac complexes following intravenous injection in mice
Assay type: in vivo, C57BL/6 mice
Experimental: In Vivo Biodistribution of ^225Ac Complexes of Macropa and DOTA. All experiments were approved by the Institutional Animal Care Committee (IACC) of the University of British Columbia and were performed in accordance with the Canadian Council on Animal Care Guidelines. A total of 9 female C57BL/6 mice (6-8 weeks old, 20-25 g) were used for the biodistribution study of each radiometal complex, n=3 for each time point.
Macropa (100 μL of a 1 mg/mL solution in NH4OAc) was diluted with 387 μL of NH4OAc (1 M, pH 7), and an aliquot (203 μL) of ^225Ac(NO3)3 (˜157 kBq) was then added; the pH of this solution was adjusted to 6.5-7 by the addition of 1 M NaOH (210 μL, trace metal grade). After 5 min at ambient temperature, the reaction solution was analyzed by TLC (0.4 M pH 4 sodium citrate as the eluent), which confirmed >95% radiochemical yield. The reaction was allowed to proceed overnight, and the radiochemical yield was again confirmed to be >95% the following morning. At this time, mice were anesthetized by 2% isoflurane, and approximately 100 μL (10-15 kBq) of the [^225Ac(macropa)]^+ complex were injected into the tail vein of each mouse. After injection, mice were allowed to recover and roam freely in their cages, and were euthanized by CO2 inhalation at 15 min, 1 h, or 5 h (n=3 at each time point) post-injection. Blood was collected by cardiac puncture and placed into an appropriate test tube for scintillation counting. Tissues collected included heart, liver, kidneys, lungs, small intestine, large intestine, brain, bladder, spleen, stomach, pancreas, bone, thyroid, tail, urine, and feces. Tissues were weighed and then counted with a calibrated gamma counter (Packard, Cobra II model 5002) using three energy windows: 60-120 keV (window A), 180-260 keV (window B), and 400-480 keV (window C). Counting was performed both immediately after sacrifice and after 7 days; counts were decay corrected from the time of injection and then converted to the percentage of injected dose (% ID) per gram of tissue (% ID/g). […]
The biodistribution studies of [^225Ac(DOTA)]^− and ^225Ac(NO3)3 were carried out as described above for [^225Ac(macropa)]^+, with the following modifications. [^225Ac(DOTA)^− was prepared by adding ^225Ac(NO3)3 (338 μL, 1.1 MBq) to a solution of DOTA (100 μg, 20 mg/mL in H2O) in NH4OAc (467 μL, 0.15 M, pH 7). The pH of the solution was adjusted to 7 using NH4OAc (150 μL, 1 M, pH 7) and the solution was heated at 85° C. for 45 min. RCY >99% was confirmed by TLC as described above. [^225Ac(DOTA)]^− was diluted with saline to a final concentration of 0.05 MBq/100 μL, and 100 μL were injected into each mouse. ^225Ac(NO3)3 (˜58 μL, 0.4 MBq) was diluted and injected in the same manner as [^225Ac(DOTA)]^−. One mouse that was to be euthanized at the 5 h time point in the [^225Ac(DOTA)]^− study died shortly after injection. In the same manner, one mouse that was to be euthanized at the 1 h time point in the ^225Ac(NO3)3 study died.
The in vivo stability [^225Ac(macropa)]^+ was examined by comparing its biodistribution to those of ^225Ac(NO3)3 and [^225Ac(DOTA)]^−. C57BL/6 mice were injected via tail vein with 10-50 kBq of each radiometal complex and were sacrificed after 15 min, 1 h, or 5 h. The amount of ^225Ac retained in each organ was quantified by gamma counting and reported as the percent of injected dose per gram of tissue (% ID/g). The results of these studies are compiled in Tables 1-3. Inadequate stability of an ^225Ac complex leading to the loss of radioisotope in vivo is manifested by the accumulation of ^225Ac in the liver, spleen, and bone of mice.^[11,12,32] […] The biodistribution profile of [^225Ac(macropa)]^+ (FIG. 3B) differs markedly from that of ^225Ac(NO3)3. […] Its biodistribution profile was similar to that of [^225Ac(DOTA)]^− (FIG. 3C), which has been previously shown to retain ^225Ac^3+ in vivo.^[7]

[1] = 15 min post i.v. injection, energy window A (60-120 keV)
[2] = 15 min post i.v. injection, energy window B (180-260 keV)
[3] = 15 min post i.v. injection, energy window C (400-480 keV)
[4] = 1 h post i.v. injection, energy window A (60-120 keV)
[5] = 1 h post i.v. injection, energy window B (180-260 keV)
[6] = 1 h post i.v. injection, energy window C (400-480 keV)
[7] = 5 h post i.v. injection, energy window A (60-120 keV)
[8] = 5 h post i.v. injection, energy window B (180-260 keV)
[9] = 5 h post i.v. injection, energy window C (400-480 keV)
[10] = C57BL/6 mice, i.v., 15 min to 5 h

Compound: O=C([O-])c1cccc(CN2CCOCCOCCN(Cc3cccc(C(=O)[O-])n3)CCOCCOCC2)n1.[225Ac+3] [[^225Ac(macropa)]^+]
- Organ distribution: bladder [1]: 46.74 % ID/g
- Organ distribution: blood [1]: 5.11 % ID/g
- Organ distribution: bone (femur + joint) [1]: 2.52 % ID/g
- Organ distribution: brain [1]: 0.26 % ID/g
- Organ distribution: feces [1]: 0.91 % ID/g
- Organ distribution: heart [1]: 2.19 % ID/g
- Organ distribution: kidneys [1]: 27.55 % ID/g
- Organ distribution: large intestines [1]: 2.40 % ID/g
- Organ distribution: liver [1]: 2.28 % ID/g
- Organ distribution: lungs [1]: 5.98 % ID/g
- Organ distribution: pancreas [1]: 1.46 % ID/g
- Organ distribution: small intestines [1]: 2.64 % ID/g
- Organ distribution: spleen [1]: 2.52 % ID/g
- Organ distribution: stomach [1]: 2.97 % ID/g
- Organ distribution: tail [1]: 8.84 % ID/g
- Organ distribution: thyroids [1]: 28.23 % ID/g
- Organ distribution: urine [1]: 1378.82 % ID/g
- Organ distribution: bladder [2]: 47.64 % ID/g
- Organ distribution: blood [2]: 5.23 % ID/g
- Organ distribution: bone (femur + joint) [2]: 2.69 % ID/g
- Organ distribution: brain [2]: 0.23 % ID/g
- Organ distribution: feces [2]: 1.04 % ID/g
- Organ distribution: heart [2]: 2.39 % ID/g
- Organ distribution: kidneys [2]: 27.86 % ID/g
- Organ distribution: large intestines [2]: 2.53 % ID/g
- Organ distribution: liver [2]: 2.17 % ID/g
- Organ distribution: lungs [2]: 5.83 % ID/g
- Organ distribution: pancreas [2]: 1.63 % ID/g
- Organ distribution: small intestines [2]: 2.59 % ID/g
- Organ distribution: spleen [2]: 2.55 % ID/g
- Organ distribution: stomach [2]: 3.29 % ID/g
- Organ distribution: tail [2]: 9.39 % ID/g
- Organ distribution: thyroids [2]: −2.22 % ID/g
- Organ distribution: urine [2]: 1541.60 % ID/g
- Organ distribution: bladder [3]: 64.68 % ID/g
- Organ distribution: blood [3]: 6.49 % ID/g
- Organ distribution: bone (femur + joint) [3]: 3.74 % ID/g
- Organ distribution: brain [3]: 0.17 % ID/g
- Organ distribution: feces [3]: 1.26 % ID/g
- Organ distribution: heart [3]: 2.87 % ID/g
- Organ distribution: kidneys [3]: 33.46 % ID/g
- Organ distribution: large intestines [3]: 3.02 % ID/g
- Organ distribution: liver [3]: 2.72 % ID/g
- Organ distribution: lungs [3]: 7.55 % ID/g
- Organ distribution: pancreas [3]: 3.00 % ID/g
- Organ distribution: small intestines [3]: 3.46 % ID/g
- Organ distribution: spleen [3]: 3.79 % ID/g
- Organ distribution: stomach [3]: 3.45 % ID/g
- Organ distribution: tail [3]: 11.75 % ID/g
- Organ distribution: thyroids [3]: −6.46 % ID/g
- Organ distribution: urine [3]: 2387.66 % ID/g
- Organ distribution: bladder [4]: 6.23 % ID/g
- Organ distribution: blood [4]: 0.40 % ID/g
- Organ distribution: bone (femur + joint) [4]: 0.31 % ID/g
- Organ distribution: brain [4]: 0.12 % ID/g
- Organ distribution: feces [4]: 0.28 % ID/g
- Organ distribution: heart [4]: 0.31 % ID/g
- Organ distribution: kidneys [4]: 13.36 % ID/g
- Organ distribution: large intestines [4]: 0.36 % ID/g
- Organ distribution: liver [4]: 0.75 % ID/g
- Organ distribution: lungs [4]: 0.51 % ID/g
- Organ distribution: pancreas [4]: 0.19 % ID/g
- Organ distribution: small intestines [4]: 1.10 % ID/g
- Organ distribution: spleen [4]: 0.51 % ID/g
- Organ distribution: stomach [4]: 0.41 % ID/g
- Organ distribution: tail [4]: 1.82 % ID/g
- Organ distribution: thyroids [4]: 3.18 % ID/g
- Organ distribution: urine [4]: 489.11 % ID/g
- Organ distribution: bladder [5]: 5.92 % ID/g
- Organ distribution: blood [5]: 0.39 % ID/g
- Organ distribution: bone (femur + joint) [5]: 0.17 % ID/g
- Organ distribution: brain [5]: 0.12 % ID/g
- Organ distribution: feces [5]: 0.27 % ID/g
- Organ distribution: heart [5]: 0.20 % ID/g
- Organ distribution: kidneys [5]: 12.97 % ID/g
- Organ distribution: large intestines [5]: 0.22 % ID/g
- Organ distribution: liver [5]: 0.70 % ID/g
- Organ distribution: lungs [5]: 0.54 % ID/g
- Organ distribution: pancreas [5]: 0.12 % ID/g
- Organ distribution: small intestines [5]: 0.94 % ID/g
- Organ distribution: spleen [5]: 0.23 % ID/g
- Organ distribution: stomach [5]: 0.33 % ID/g
- Organ distribution: tail [5]: 1.82 % ID/g
- Organ distribution: thyroids [5]: 0.10 % ID/g
- Organ distribution: urine [5]: 517.19 % ID/g
- Organ distribution: bladder [6]: 9.00 % ID/g
- Organ distribution: blood [6]: 0.54 % ID/g
- Organ distribution: bone (femur + joint) [6]: 0.70 % ID/g
- Organ distribution: brain [6]: 0.23 % ID/g
- Organ distribution: feces [6]: 0.69 % ID/g
- Organ distribution: heart [6]: 0.23 % ID/g
- Organ distribution: kidneys [6]: 17.38 % ID/g
- Organ distribution: large intestines [6]: 0.79 % ID/g
- Organ distribution: liver [6]: 1.08 % ID/g
- Organ distribution: lungs [6]: 0.84 % ID/g
- Organ distribution: pancreas [6]: 0.43 % ID/g
- Organ distribution: small intestines [6]: 1.62 % ID/g
- Organ distribution: spleen [6]: 0.48 % ID/g
- Organ distribution: stomach [6]: 0.17 % ID/g
- Organ distribution: tail [6]: 2.57 % ID/g
- Organ distribution: thyroids [6]: 8.34 % ID/g
- Organ distribution: urine [6]: 641.63 % ID/g
- Organ distribution: bladder [7]: 4.25 % ID/g
- Organ distribution: blood [7]: 0.01 % ID/g
- Organ distribution: bone (femur + joint) [7]: 0.05 % ID/g
- Organ distribution: brain [7]: 0.02 % ID/g
- Organ distribution: feces [7]: 3.46 % ID/g
- Organ distribution: heart [7]: 0.10 % ID/g
- Organ distribution: kidneys [7]: 0.74 % ID/g
- Organ distribution: large intestines [7]: 0.49 % ID/g
- Organ distribution: liver [7]: 0.39 % ID/g
- Organ distribution: lungs [7]: 0.01 % ID/g
- Organ distribution: pancreas [7]: 0.10 % ID/g
- Organ distribution: small intestines [7]: 0.29 % ID/g
- Organ distribution: spleen [7]: 0.11 % ID/g
- Organ distribution: stomach [7]: 0.01 % ID/g
- Organ distribution: tail [7]: 0.14 % ID/g
- Organ distribution: thyroids [7]: 0.10 % ID/g
- Organ distribution: urine [7]: 12.78 % ID/g
- Organ distribution: bladder [8]: 3.69 % ID/g
- Organ distribution: blood [8]: 0.00 % ID/g
- Organ distribution: bone (femur + joint) [8]: 0.02 % ID/g
- Organ distribution: brain [8]: −0.01 % ID/g
- Organ distribution: feces [8]: 3.49 % ID/g
- Organ distribution: heart [8]: −0.04 % ID/g
- Organ distribution: kidneys [8]: 0.78 % ID/g
- Organ distribution: large intestines [8]: 0.45 % ID/g
- Organ distribution: liver [8]: 0.36 % ID/g
- Organ distribution: lungs [8]: −0.05 % ID/g
- Organ distribution: pancreas [8]: −0.12 % ID/g
- Organ distribution: small intestines [8]: 0.29 % ID/g
- Organ distribution: spleen [8]: 0.09 % ID/g
- Organ distribution: stomach [8]: 0.04 % ID/g
- Organ distribution: tail [8]: 0.13 % ID/g
- Organ distribution: thyroids [8]: −6.94 % ID/g
- Organ distribution: urine [8]: 13.51 % ID/g
- Organ distribution: bladder [9]: 8.52 % ID/g
- Organ distribution: blood [9]: 0.04 % ID/g
- Organ distribution: bone (femur + joint) [9]: 0.08 % ID/g
- Organ distribution: brain [9]: −0.01 % ID/g
- Organ distribution: feces [9]: 5.27 % ID/g
- Organ distribution: heart [9]: 0.28 % ID/g
- Organ distribution: kidneys [9]: 1.07 % ID/g
- Organ distribution: large intestines [9]: 0.68 % ID/g
- Organ distribution: liver [9]: 0.55 % ID/g
- Organ distribution: lungs [9]: 0.15 % ID/g
- Organ distribution: pancreas [9]: 0.13 % ID/g
- Organ distribution: small intestines [9]: 0.42 % ID/g
- Organ distribution: spleen [9]: 0.43 % ID/g
- Organ distribution: stomach [9]: 0.13 % ID/g
- Organ distribution: tail [9]: 0.28 % ID/g
- Organ distribution: thyroids [9]: 19.89 % ID/g
- Organ distribution: urine [9]: 22.27 % ID/g
- blood clearance and excretion (in words) [10]: rapidly cleared from mice
- organ accumulation (in words) [10]: did not accumulate in any organ
